The values below come from patent publication US20250325535A1, “IDENTIFICATION OF NOVEL SMALL-MOLECULE INHIBITORS OF SARS-CoV-2 BY CHEMICAL GENETICS” (The University of Hong Kong, priority 2024, published 2025).

The test system of experiment [1] is 3CLpro S301P recombinant SARS-CoV-2. Format: cell-based. Conditions: for IC50: read-out: IC50 (plaque formation assay).
The subject of experiment [2] is SARS-CoV-2 variants and other human coronaviruses. Kind of experiment: microbe, parasite or virus in culture. The following applies: Severe acute respiratory syndrome coronavirus 2, read-out: IC50 (antiviral). Format: cell-based.
Experiment [3] deals with SARS-COV-2 Alpha variant (B.1.1.7). Format: in vivo, K18-hACE2 transgenic mice. Conditions: n=5, IP once daily; 172 50 mg/kg, Nirmatrelvir 200 mg/kg; vehicle mice died day 5-6.

Structures are written as SMILES.

Usually IC50 stands for the concentration that inhibits the measured activity by half. With `CC(C)(C)[C@H](NC(=O)C(F)(F)F)C(=O)N1C[C@H]2[C@@H]([C@H]1C(=O)N[C@H](C#N)C[C@@H]1CCNC1=O)C2(C)C` [Nirmatrelvir], the IC50 is 20.1 nM in experiment [1] and 4.5 to 32 nM in experiment [2]. In experiment [3], the “time of death (survival)” value is “one mouse died on day 6, and all remaining mice died on day 8”.
Turning to `CCOc1cc2ncc(C#N)c(Nc3ccc(F)c(Cl)c3)c2cc1NC(=O)/C=C/CN(C)C` [Pelitinib], in experiment [1], the “inhibition of virus replication” value was “not the mutant virus” and the IC50 came out at 7300 nM.
